Source: patent publication US9487501B2, “Pyrazole carboxamide compounds and uses thereof” (Hoffmann-La Roche Inc., priority 2012, dated 2016)
Structures can show the parent of a compound that is named as a salt.

Key:
[1] = biological target: rat TAAR1 (Rattus norvegicus (Rat), UniProt Q923Y9); test: Radioligand binding assay on rat TAAR1; settings: for Ki: read-out: Ki (μM) rat, rat TAAR1, membranes of HEK-293 cells, radioligand displacement;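 as to all read-outs here: stably transfected HEK293 cell membranes with a tritiated radioligand, 1 h incubation at 4 °C, nonspecific binding taken as binding with 10 µM unlabeled ligand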
Procedure: (§1) For the generation of stably transfected cell lines HEK293 cells were transfected with the pIRESneo2 expression plasmids containing the TAAR coding sequences (described above) with Lipofectamine 2000 (Invitrogen) according to the instructions of the manufacturer, and 24 hrs post transfection the culture medium was supplemented with 1 mg/ml G418 (Sigma, Buchs, Switzerland). […] Radioligand Binding Assay on Rat TAAR1 Membrane Preparation and Radioligand Binding. […] Cells were released from culture flasks using trypsin/EDTA, harvested, washed twice with ice-cold PBS (without Ca^2+ and Mg^2+), pelleted at 1,000 rpm for 5 min at 4° C., frozen and stored at −80° C. Frozen pellets were suspended in 20 ml HEPES-NaOH (20 mM, pH 7.4) containing 10 mM EDTA and homogenized with a Polytron (PT 6000, Kinematica) at 14,000 rpm for 20 s. The homogenate was centrifuged at 48,000×g for 30 min at 4° C. Subsequently, the supernatant was removed and discarded, and the pellet resuspended in 20 ml HEPES-NaOH (20 mM, pH 7.4) containing 0.1 mM EDTA using the Polytron (20 s at 14,000 rpm). This procedure was repeated and the final pellet resuspended in HEPES-NaOH containing 0.1 mM EDTA and homogenized using the Polytron. Typically, aliquots of 2 ml membrane portions were stored at −80° C. With each new membrane batch the dissociation constant (Kd) was determined via a saturation curve. […] Nonspecific binding was defined as the amount of ^3[H]-(S)-4-[(ethyl-phenyl-amino)-methyl]-4,5-dihydro-oxazol-2-ylamine bound in the presence of 10 μM unlabeled ligand. All compounds were tested at a broad range of concentrations (10 pM to 10 μM) in duplicates. […] The 96 deep well plates were incubated for 1 hr at 4° C. Incubations were terminated by rapid filtration through Unifilter-96 plates (Packard Instrument Company) and glass filters GF/C (Perkin Elmer) presoaked for 1 hr in polyethylenimine (0.3%) and washed 3 times with 1 ml of cold binding buffer. After addition of 45 μl of Microscint 40 (PerkinElmer) the Unifilter-96 plate was sealed and after 1 hr the radioactivity counted using a TopCount Microplate Scintillation Counter (Packard Instrument Company). Radioligand Binding Assay on Mouse TAAR1 Membrane Preparation and Radioligand Binding. […] Cells were released from culture flasks using trypsin/EDTA, harvested, washed twice with ice-cold PBS (without Ca^2+ and Mg^2+), pelleted at 1,000 rpm for 5 min at 4° C., frozen and stored at −80° C. Frozen pellets were suspended in 20 ml HEPES-NaOH (20 mM, pH 7.4) containing 10 mM EDTA and homogenized with a Polytron (PT 6000, Kinematica) at 14,000 rpm for 20 s. The homogenate was centrifuged at 48,000×g for 30 min at 4° C. Subsequently, the supernatant was removed and discarded, and the pellet resuspended in 20 ml HEPES-NaOH (20 mM, pH 7.4) containing 0.1 mM EDTA using the Polytron (20 s at 14,000 rpm). This procedure was repeated and the final pellet resuspended in HEPES-NaOH containing 0.1 mM EDTA and homogenized using the Polytron. Typically, aliquots of 2 ml membrane portions were stored at −80° C. With each new membrane batch the dissociation constant (Kd) was determined via a saturation curve.

[2] = biological target: mouse TAAR1 (Mus musculus (Mouse), UniProt Q923Y8); test: Radioligand binding assay on mouse TAAR1; settings: for Ki: read-out: Ki (μM) mouse, mouse TAAR1, membranes of HEK-293 cells, radioligand displacement
mouse TAAR1, sequence (Q923Y8 whole entry): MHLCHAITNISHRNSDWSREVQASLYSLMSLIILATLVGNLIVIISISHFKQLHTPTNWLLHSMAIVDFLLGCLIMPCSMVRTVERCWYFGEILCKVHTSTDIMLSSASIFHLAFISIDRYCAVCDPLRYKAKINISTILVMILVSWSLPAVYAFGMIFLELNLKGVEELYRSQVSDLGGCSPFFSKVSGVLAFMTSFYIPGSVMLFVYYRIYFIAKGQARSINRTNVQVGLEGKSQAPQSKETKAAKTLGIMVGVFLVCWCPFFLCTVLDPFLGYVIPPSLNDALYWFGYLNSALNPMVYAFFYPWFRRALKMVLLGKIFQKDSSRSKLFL
Procedure: as §1

rat TAAR1, sequence (Q923Y9 whole entry): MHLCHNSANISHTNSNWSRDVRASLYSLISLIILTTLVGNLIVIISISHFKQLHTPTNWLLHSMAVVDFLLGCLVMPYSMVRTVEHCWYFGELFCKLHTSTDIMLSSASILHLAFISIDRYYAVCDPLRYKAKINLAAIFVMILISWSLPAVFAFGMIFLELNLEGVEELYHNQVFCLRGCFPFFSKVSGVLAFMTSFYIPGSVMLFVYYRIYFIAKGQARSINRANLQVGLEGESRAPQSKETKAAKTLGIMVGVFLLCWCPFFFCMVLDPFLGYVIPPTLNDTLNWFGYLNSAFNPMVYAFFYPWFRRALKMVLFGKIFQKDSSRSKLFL

| SMILES | Ki [1] [µM] | Ki [2] [µM] | Kd ([1]; read-out: dissociation constant (Kd) of the radioligand, rat TAAR1 membranes, saturation curve) [nM] | Kd ([2]; read-out: dissociation constant (Kd) of the radioligand, mouse TAAR1 membranes, saturation curve) [nM] |
| --- | --- | --- | --- | --- |
| N#Cc1ccc(-n2cc(C(=O)Nc3ccc([C@H]4CNCCO4)cc3)cn2)cc1F [Example 24, (S)-1-(4-cyano-3-fluorophenyl)-N-(4-(morpholin-2-yl)phenyl)-1H-pyrazole-4-carboxamide hydrochloride] | 0.0154 | 0.0175 |  |  |
| N#Cc1cc(F)ccc1-n1cc(C(=O)Nc2ccc([C@H]3CNCCO3)cc2)cn1 [Example 25, (S)-1-(2-cyano-4-fluorophenyl)-N-(4-(morpholin-2-yl)phenyl)-1H-pyrazole-4-carboxamide hydrochloride] | 0.0078 | 0.0082 |  |  |
| O=C(Nc1ccc([C@H]2CNCCO2)cc1)c1cnn(-c2ccc(OC(F)(F)F)cc2)c1 [Example 26, (S)—N-(4-(morpholin-2-yl)phenyl)-1-(4-(trifluoromethoxy)phenyl)-1H-pyrazole-4-carboxamide hydrochloride] | 0.0005 | 0.0007 |  |  |
| O=C(Nc1ccc([C@@H]2CNCCO2)cc1)c1cnn(-c2ccc(OC(F)F)cc2)c1 [Example 27, (R)-1-(4-(difluoromethoxy)phenyl)-N-(4-(morpholin-2-yl)phenyl)-1H-pyrazole-4-carboxamide hydrochloride] | 0.001 | 0.0013 |  |  |
| CCOc1cccc(-n2cc(C(=O)Nc3ccc([C@H]4CNCCO4)cc3)cn2)n1 [Example 28, (S)-1-(6-ethoxypyridin-2-yl)-N-(4-(morpholin-2-yl)phenyl)-1H-pyrazole-4-carboxamide hydrochloride] | 0.0022 | 0.0008 |  |  |
| O=C(Nc1ccc([C@H]2CNCCO2)cc1)c1cnn(-c2ccc3c(c2)OC(F)(F)O3)c1 [Example 29, (S)-1-(2,2-difluorobenzo[d][1,3]dioxol-5-yl)-N-(4-(morpholin-2-yl)phenyl)-1H-pyrazole-4-carboxamide hydrochloride] | 0.0014 | 0.0023 |  |  |
| O=C(Nc1ccc([C@H]2CNCCO2)cc1)c1cnn(-c2ncc(Cl)cn2)c1 [Example 30, (S)-1-(5-chloropyrimidin-2-yl)-N-(4-(morpholin-2-yl)phenyl)-1H-pyrazole-4-carboxamide hydrochloride] | 0.135 | 0.0166 |  |  |
| Cc1c(C(=O)Nc2ccc([C@H]3CNCCO3)cc2)cnn1-c1ccc(OC(F)F)cc1 [Example 31, (S)-1-(4-(difluoromethoxy)phenyl)-5-methyl-N-(4-(morpholin-2-yl)phenyl)-1H-pyrazole-4-carboxamide hydrochloride] | 0.045 | 0.0013 |  |  |
| Cc1nn(-c2ccc(OC(F)F)cc2)cc1C(=O)Nc1ccc([C@H]2CNCCO2)cc1 [Example 32, (S)-1-(4-(difluoromethoxy)phenyl)-3-methyl-N-(4-(morpholin-2-yl)phenyl)-1H-pyrazole-4-carboxamide hydrochloride] | 0.0002 | 0.0008 |  |  |
| O=C(Nc1ccc([C@H]2CNCCO2)cc1)c1cnn(-c2cncc(Cl)n2)c1 [Example 33, (S)-1-(6-chloropyrazin-2-yl)-N-(4-(morpholin-2-yl)phenyl)-1H-pyrazole-4-carboxamide hydrochloride] | 0.0068 | 0.0032 |  |  |
| O=C(Nc1ccc([C@H]2CNCCO2)cc1)c1cnn(-c2ccnc(C(F)(F)F)n2)c1 [Example 34, (S)—N-(4-(morpholin-2-yl)phenyl)-1-(2-(trifluoromethyl)pyrimidin-4-yl)-1H-pyrazole-4-carboxamide hydrochloride] | 0.0035 | 0.0054 |  |  |
| Cc1c(C(=O)Nc2ccc([C@H]3CNCCO3)cc2)cnn1-c1ccc(C#N)cc1 [Example 35, (S)-1-(4-cyanophenyl)-5-methyl-N-(4-(morpholin-2-yl)phenyl)-1H-pyrazole-4-carboxamide hydrochloride] | 0.167 | 0.0601 |  |  |
| O=C(Nc1ccc([C@H]2CNCCO2)cc1)c1cnn(-c2ccnc(Cl)n2)c1 [Example 36, (S)-1-(2-chloropyrimidin-4-yl)-N-(4-(morpholin-2-yl)phenyl)-1H-pyrazole-4-carboxamide hydrochloride] | 0.0054 | 0.0086 |  |  |
| O=C(Nc1ccc([C@H]2CNCCO2)cc1)c1cnn(-c2ncc(C(F)(F)F)cn2)c1 [Example 37, (S)—N-(4-(morpholin-2-yl)phenyl)-1-(5-(trifluoromethyl)pyrimidin-2-yl)-1H-pyrazole-4-carboxamide hydrochloride] | 0.0931 | 0.0615 |  |  |
| O=C(Nc1ccc([C@H]2CNCCO2)cc1)c1cnn(-c2cncc(C(F)(F)F)n2)c1 [Example 38, (S)—N-(4-(morpholin-2-yl)phenyl)-1-(6-(trifluoromethyl)pyrazin-2-yl)-1H-pyrazole-4-carboxamide hydrochloride] | 0.0059 | 0.0075 |  |  |
| Cc1cncc(-n2cc(C(=O)Nc3ccc([C@H]4CNCCO4)cc3)cn2)n1 [Example 39, (S)-1-(6-methylpyrazin-2-yl)-N-(4-(morpholin-2-yl)phenyl)-1H-pyrazole-4-carboxamide hydrochloride] | 0.0435 | 0.0088 |  |  |

| SMILES | Ki [1] [µM] | Ki [2] [µM] | Kd ([1]; read-out: dissociation constant (Kd) of the radioligand, rat TAAR1 membranes, saturation curve) [nM] | Kd ([2]; read-out: dissociation constant (Kd) of the radioligand, mouse TAAR1 membranes, saturation curve) [nM] |
| --- | --- | --- | --- | --- |
| Cc1cnc(-n2cc(C(=O)Nc3ccc([C@H]4CNCCO4)cc3)cn2)cn1 [Example 40, (S)-1-(5-methylpyrazin-2-yl)-N-(4-(morpholin-2-yl)phenyl)-1H-pyrazole-4-carboxamide hydrochloride] | 0.126 | 0.0119 |  |  |
| O=C(Nc1ccc([C@H]2CNCCO2)cc1)c1cnn(-c2nccnc2Cl)c1 [Example 41, (S)-1-(3-chloropyrazin-2-yl)-N-(4-(morpholin-2-yl)phenyl)-1H-pyrazole-4-carboxamide hydrochloride] | 0.0814 | 0.0275 |  |  |
| N#Cc1cnc(-n2cc(C(=O)Nc3ccc([C@H]4CNCCO4)cc3)cn2)cn1 [Example 42, (S)-1-(5-cyanopyrazin-2-yl)-N-(4-(morpholin-2-yl)phenyl)-1H-pyrazole-4-carboxamide hydrochloride] | 0.0326 | 0.0199 |  |  |
| Cc1ccnc(-n2cc(C(=O)Nc3ccc([C@H]4CNCCO4)cc3)cn2)n1 [Example 43, (S)-1-(4-methylpyrimidin-2-yl)-N-(4-(morpholin-2-yl)phenyl)-1H-pyrazole-4-carboxamide hydrochloride] | 0.315 | 0.0554 |  |  |
| O=C(Nc1ccc([C@H]2CNCCO2)cc1)c1cnn(-c2cc(C(F)(F)F)ncn2)c1 [Example 44, (S)—N-(4-(morpholin-2-yl)phenyl)-1-(6-(trifluoromethyl)pyrimidin-4-yl)-1H-pyrazole-4-carboxamide hydrochloride] | 0.0041 | 0.0099 |  |  |
| O=C(Nc1ccc([C@H]2CNCCO2)cc1)c1cnn(-c2cnc(C(F)(F)F)nc2)c1 [Example 45, (S)—N-(4-(morpholin-2-yl)phenyl)-1-(2-(trifluoromethyl)pyrimidin-5-yl)-1H-pyrazole-4-carboxamide hydrochloride] | 0.0059 | 0.0214 |  |  |
| O=C(Nc1ccc([C@H]2CNCCO2)cc1)c1cnn(-c2cnc(Cl)cn2)c1 [Example 46, (S)-1-(5-chloropyrazin-2-yl)-N-(4-(morpholin-2-yl)phenyl)-1H-pyrazole-4-carboxamide hydrochloride] | 0.0056 | 0.0031 |  |  |
| N#Cc1cncc(-n2cc(C(=O)Nc3ccc([C@H]4CNCCO4)cc3)cn2)n1 [Example 47, (S)-1-(6-cyanopyrazin-2-yl)-N-(4-(morpholin-2-yl)phenyl)-1H-pyrazole-4-carboxamide hydrochloride] | 0.0345 | 0.0195 |  |  |
| O=C(Nc1ccc([C@H]2CNCCO2)cc1)c1cnn(-c2nccc(C(F)(F)F)n2)c1 [Example 48, (S)—N-(4-(morpholin-2-yl)phenyl)-1-(4-(trifluoromethyl)pyrimidin-2-yl)-1H-pyrazole-4-carboxamide hydrochloride] | 0.149 | 0.0531 |  |  |
| N#Cc1ccc(-n2cc(C(=O)Nc3ccc([C@@H]4CNCCO4)cc3)cn2)c(F)c1 [Example 49, (R)-1-(4-cyano-2-fluorophenyl)-N-(4-(morpholin-2-yl)phenyl)-1H-pyrazole-4-carboxamide hydrochloride] | 0.0033 | 0.0049 |  |  |
| O=C(Nc1ccc([C@H]2CNCCO2)cc1)c1cnn(-c2ccnc(C(F)(F)F)c2)c1 [Example 50, (S)—N-(4-(morpholin-2-yl)phenyl)-1-(2-(trifluoromethyl)pyridin-4-yl)-1H-pyrazole-4-carboxamide hydrochloride] | 0.0038 | 0.0077 |  |  |
| O=C(Nc1ccc([C@H]2CNCCO2)cc1)c1cnn(-c2ccc(C(F)(F)F)nc2)c1 [Example 51, (S)—N-(4-(morpholin-2-yl)phenyl)-1-(6-(trifluoromethyl)pyridin-3-yl)-1H-pyrazole-4-carboxamide hydrochloride] | 0.0048 | 0.0064 |  |  |
| N#Cc1nccnc1-n1cc(C(=O)Nc2ccc([C@H]3CNCCO3)cc2)cn1 [Example 52, (S)-1-(3-cyanopyrazin-2-yl)-N-(4-(morpholin-2-yl)phenyl)-1H-pyrazole-4-carboxamide hydrochloride] | 0.0451 | 0.0179 |  |  |
| O=C(Nc1ccc([C@H]2CNCCO2)cc1)c1cnn(-c2cc(C3CC3)ncn2)c1 [Example 56, (S)-1-(6-cyclopropylpyrimidin-4-yl)-N-(4-(morpholin-2-yl)phenyl)-1H-pyrazole-4-carboxamide hydrochloride] | 0.0052 | 0.0051 |  |  |
| O=C(Nc1ccc([C@H]2CNCCO2)cc1)c1cnn(-c2nc(C(F)(F)F)cs2)c1 [Example 57, (S)—N-(4-(morpholin-2-yl)phenyl)-1-(4-(trifluoromethyl)thiazol-2-yl)-1H-pyrazole-4-carboxamide hydrochloride] | 0.0011 | 0.0019 |  |  |
| CCN(C[C@H]1COC(N)=N1)c1ccccc1 [reference compound] |  |  | ~2.3 | ~0.7 |
